In patent US12304904B2, “Bicyclic [4,6,0] hydroxamic acids as HDAC inhibitors” (Valo Health, Inc., priority 2015, dated 2025) one finds IC50 data, which are given here for three molecules.

The experiment deals with T1, HDAC6 (Homo sapiens, UniProt Q9UBN7).
T1 construct: Full length human recombinant HDAC6 protein were expressed in baculoviral system; made in house
T1 sequence (Q9UBN7 1-1215): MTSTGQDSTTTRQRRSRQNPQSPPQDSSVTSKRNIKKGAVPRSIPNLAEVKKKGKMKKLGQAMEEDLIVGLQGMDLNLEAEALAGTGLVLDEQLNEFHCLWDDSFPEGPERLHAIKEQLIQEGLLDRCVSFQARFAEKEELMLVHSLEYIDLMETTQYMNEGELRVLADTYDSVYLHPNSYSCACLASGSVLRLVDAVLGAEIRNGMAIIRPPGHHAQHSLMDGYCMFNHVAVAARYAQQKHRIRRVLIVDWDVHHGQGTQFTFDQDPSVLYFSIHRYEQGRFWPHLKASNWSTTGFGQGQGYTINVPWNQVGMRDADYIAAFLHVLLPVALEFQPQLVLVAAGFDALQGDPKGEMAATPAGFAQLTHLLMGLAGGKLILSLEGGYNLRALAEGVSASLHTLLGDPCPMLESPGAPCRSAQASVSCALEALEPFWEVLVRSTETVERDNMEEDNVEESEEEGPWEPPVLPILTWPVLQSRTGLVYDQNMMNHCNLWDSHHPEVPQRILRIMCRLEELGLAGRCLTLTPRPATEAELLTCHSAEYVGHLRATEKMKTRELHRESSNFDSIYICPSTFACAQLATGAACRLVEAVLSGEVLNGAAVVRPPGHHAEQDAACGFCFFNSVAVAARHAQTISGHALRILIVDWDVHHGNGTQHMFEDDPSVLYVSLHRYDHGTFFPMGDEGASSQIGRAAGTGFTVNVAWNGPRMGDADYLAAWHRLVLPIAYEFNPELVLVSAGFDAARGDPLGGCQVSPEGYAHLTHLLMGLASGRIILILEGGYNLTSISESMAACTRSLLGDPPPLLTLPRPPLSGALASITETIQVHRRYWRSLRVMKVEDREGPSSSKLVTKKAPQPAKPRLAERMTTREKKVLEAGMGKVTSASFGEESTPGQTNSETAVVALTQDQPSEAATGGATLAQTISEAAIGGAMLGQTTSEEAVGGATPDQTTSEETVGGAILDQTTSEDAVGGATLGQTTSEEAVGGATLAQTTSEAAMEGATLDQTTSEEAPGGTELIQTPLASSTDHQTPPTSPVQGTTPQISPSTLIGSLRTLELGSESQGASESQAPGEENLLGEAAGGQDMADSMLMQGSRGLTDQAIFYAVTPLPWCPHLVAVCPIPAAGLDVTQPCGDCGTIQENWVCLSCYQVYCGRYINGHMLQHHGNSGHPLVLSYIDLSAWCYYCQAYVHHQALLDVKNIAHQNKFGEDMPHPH
Put plainly: In vitro histone deacetylase assay: enzymatic HDAC6 electrophoretic mobility shift assay. The experiment is classed as biochemical. The following applies: full length human recombinant HDAC6, 1 nM enzyme, 2 μM peptide substrate RHKK(Ac)-NH2, 25° C.; read-out: Inhibitory Concentration (IC50) against HDAC6, Activity Range. The protocol: The enzymatic HDAC6 assay was performed using electrophoretic mobility shift assay. Full length human recombinant HDAC6 protein were expressed in baculoviral system and purified by affinity chromatography. The enzymatic reactions were assembled in 384 well plates in a total volume of 25 μL in a reaction buffer composing: 100 mM HEPES, pH7.5, 25 mM KCl, 0.1% bovine serum albumin, 0.01% Triton X-100, 1% DMSO (from compounds) 2 μM of the fluorescently labeled peptide substrate and enzyme. The enzyme was added at a final concentration of 1 nM. The peptide substrate RHKK(Ac)—NH2 was used. The compounds were tested at 12 concentrations spaced by 3× dilution intervals. Negative control samples (0%-inhibition in the absence of inhibitor) and positive control samples (100%-inhibition) were assembled in replicates of four in each assay plate. The reactions were incubated at 25° C. and quenched by the addition of 45 μL of termination buffer (100 mM HEPES, pH 7.5, 0.01% Triton X-100, 0.05% SDS).
The terminated assay plates were analyzed on LabChip® 3000 microfluidic electrophoresis instrument (Perkin Elmer/Caliper Life Sciences). The fluorescence intensity of the electrophoretically separated de-acetylated product and substrate peptide were measured. Activity in each sample was determined as the product to sum ratio (PSR): P/(S+P), where P is the peak height of the product peptide and S is the peak height of the substrate peptide. Percent inhibition (Pinh) was determined using the following equation:
Pinh=(PSR0%−PSRinh)/(PSR0%−PSR100%)*100, where PSRinh is the product sum ratio in the presence of inhibitor, PSR0% is the average product sum ration in the absence of inhibitor and PSR100% is the average product sum ratio in 100%-inhibition control samples. The IC50 values of inhibitors are determined by fitting the %-inhibition curves with 4 parameter dose-response model using XLfit 4 software.
Background: Mobility shift assays separate free from complexed probe on a gel.
With `O=C(NO)c1ccc2c(c1)OCCCNC2` [N-hydroxy-3,4,5,6-tetrahydro-2H-benzo[b][1,5]oxazocine-9-carboxamide], the IC50 is over 500 nM. Under `CC1(C(=O)N2CCCOc3cc(C(=O)NO)ccc3C2)CCOCC1` [N-hydroxy-5-(4-methyltetrahydro-2H-pyran-4-carbonyl)-3,4,5,6-tetrahydro-2H-benzo[b][1,5]oxazocine-9-carboxamide] stands at most 100 nM; under `O=C(NO)c1ccc2c(c1)OCCCN(C(=O)C1CCOCC1)C2` [N-hydroxy-5-(tetrahydro-2H-pyran-4-carbonyl)-3,4,5,6-tetrahydro-2H-benzo[b][1,5]oxazocine-9-carboxamide], 100 to 500 nM.
